Results taken from article PMC8342005, “A two-step resin based approach to reveal survivin-selective fluorescent probes” (RSC Chemical Biology, 2020).

What was measured:
[1] = biological target: T1, survivin (Homo sapiens, UniProt O15392); test: fluorescence intensity titration of the intrinsically fluorescent ligand with survivin; also CONA bead imaging and affinity resin capture; format: binding
T1 construct: gene BIRC5; His6-tagged full length survivin

[2] = biological target: T1, survivin; test: fluorescence intensity titration of the intrinsically fluorescent ligand with survivin ([…] fit); also CONA bead imaging, affinity resin capture, native PAGE; format: binding

T1 sequence (O15392 whole entry): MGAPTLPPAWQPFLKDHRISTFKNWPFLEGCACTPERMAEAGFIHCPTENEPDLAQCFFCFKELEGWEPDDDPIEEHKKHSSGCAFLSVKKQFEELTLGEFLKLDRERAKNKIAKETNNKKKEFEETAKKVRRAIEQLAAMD

Row | Compound | Kd [1] | Kd [2]
1 | COc1cc2[nH]c1/C=C1/C=CC(=N1)CCCCCCCCCc1ccc-2[nH]1 [compound 1, cyclononylprodigiosin] | 149 ± 8.3 µM | –
2 | CCCCCC1=C/C(=C/c2[nH]c(-c3ccc[nH]3)cc2OC)N=C1C [compound 2, prodigiosin] | – | 11.5 ± 3.1 µM
